Reference: ChEMBL document CHEMBL1909046, “DrugMatrix in vitro pharmacology data”

Columns and labels:
[1] = DRUGMATRIX: Phosphodiesterase PDE3 enzyme inhibition (substrate: [3H]cAMP + cAMP); assay type: tissue-based, Homo sapiens; conditions: platelet; Not Active = under 50% inhibition at 10 µM
[2] = molecular target: Tyrosine-protein kinase Fyn (Homo sapiens, UniProt P06241); assay: biochemical; assay type: cell-based, Insect cells; conditions: insect cells;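 further: enzymatic inhibition of Fyn kinase activity measured with Poly(Glu:Tyr) as the phosphorylation substrate; in other assays of this panel Not Active means under 50% inhibition at 10 µM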
Sequence of Tyrosine-protein kinase Fyn (P06241 whole entry): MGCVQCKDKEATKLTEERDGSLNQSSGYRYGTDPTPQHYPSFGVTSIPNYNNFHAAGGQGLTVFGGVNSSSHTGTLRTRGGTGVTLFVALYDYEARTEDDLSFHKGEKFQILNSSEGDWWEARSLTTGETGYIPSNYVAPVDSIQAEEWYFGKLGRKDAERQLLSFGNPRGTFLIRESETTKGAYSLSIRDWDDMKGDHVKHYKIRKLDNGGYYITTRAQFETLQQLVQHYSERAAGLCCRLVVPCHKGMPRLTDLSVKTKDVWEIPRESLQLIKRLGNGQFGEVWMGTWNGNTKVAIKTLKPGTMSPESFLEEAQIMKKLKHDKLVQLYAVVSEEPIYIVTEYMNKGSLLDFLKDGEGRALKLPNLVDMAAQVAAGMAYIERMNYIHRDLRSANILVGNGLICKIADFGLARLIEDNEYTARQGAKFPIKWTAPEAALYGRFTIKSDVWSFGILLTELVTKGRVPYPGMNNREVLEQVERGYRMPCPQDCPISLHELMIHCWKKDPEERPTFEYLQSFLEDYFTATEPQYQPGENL

[3] = DRUGMATRIX: Tumor Necrosis Factor (TNF), Non-Selective radioligand binding (ligand: [125I] TNF-alpha); assay type: cell membranes, Membrane; conditions: u-937; Not Active = under 50% inhibition at 10 µM
[4] = molecular target: T1, Alpha-1A adrenergic receptor (Rattus norvegicus, UniProt P43140); assay: DRUGMATRIX: Alpha-1A adrenergic receptor radioligand binding (ligand: prazosin); assay type: cell membranes, Wistar, Submaxillary gland, Membrane; conditions: Not Active = under 50% inhibition at 10 µM
T1 sequence (P43140 whole entry): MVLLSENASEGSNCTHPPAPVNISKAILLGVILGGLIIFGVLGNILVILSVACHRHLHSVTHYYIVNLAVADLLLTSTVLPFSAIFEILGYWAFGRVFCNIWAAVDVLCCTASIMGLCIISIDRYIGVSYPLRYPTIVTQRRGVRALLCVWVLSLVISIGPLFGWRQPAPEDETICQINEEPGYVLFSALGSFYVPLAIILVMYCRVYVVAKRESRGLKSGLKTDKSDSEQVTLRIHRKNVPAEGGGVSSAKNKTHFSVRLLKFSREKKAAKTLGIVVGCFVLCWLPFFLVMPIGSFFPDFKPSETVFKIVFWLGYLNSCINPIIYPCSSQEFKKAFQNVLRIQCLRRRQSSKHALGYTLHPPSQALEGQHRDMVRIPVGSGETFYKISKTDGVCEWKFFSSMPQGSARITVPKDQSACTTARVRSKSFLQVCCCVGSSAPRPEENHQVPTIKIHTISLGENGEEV

[5] = molecular target: Platelet-activating factor receptor (Homo sapiens, UniProt P25105); assay type: tissue-based; further: in other assays of this panel Not Active means under 50% inhibition at 10 µM
Sequence of Platelet-activating factor receptor (P25105 whole entry): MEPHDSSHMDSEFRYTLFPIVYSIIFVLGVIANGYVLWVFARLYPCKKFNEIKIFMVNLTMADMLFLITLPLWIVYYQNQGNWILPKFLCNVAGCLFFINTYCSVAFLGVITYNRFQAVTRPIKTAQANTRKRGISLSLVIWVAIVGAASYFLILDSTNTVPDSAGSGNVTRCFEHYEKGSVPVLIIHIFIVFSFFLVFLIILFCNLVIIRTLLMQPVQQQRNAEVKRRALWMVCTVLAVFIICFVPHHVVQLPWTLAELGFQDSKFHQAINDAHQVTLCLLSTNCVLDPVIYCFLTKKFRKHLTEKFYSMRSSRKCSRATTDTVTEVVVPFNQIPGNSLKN

[6] = DRUGMATRIX: Sigma2 radioligand binding (ligand: [3H] Ifenprodil); assay type: cell membranes, Rattus norvegicus, Wistar, Brain, Membrane; conditions: Not Active = under 50% inhibition at 10 µM

SODIUM NITROPRUSSIDE
Not Active: IC50 [1] | Ki [1] | IC50 [2] | Ki [2] | IC50 [3] | Ki [3] | IC50 [4] | Ki [4] | IC50 [5] | Ki [5] | IC50 [6] | Ki [6]

Cn1ccnc1S [METHIMAZOLE]
Not Active: IC50 [1] | Ki [1] | IC50 [2] | IC50 [3] | Ki [3] | IC50 [4] | IC50 [5] | IC50 [6] | Ki [6]

Cc1oncc1C(=O)Nc1ccc(C(F)(F)F)cc1 [LEFLUNOMIDE]
Not Active: IC50 [1] | Ki [1] | IC50 [2] | IC50 [3] | Ki [3] | IC50 [4] | IC50 [5] | IC50 [6] | Ki [6]

COc1c(C)c2c(c(O)c1C/C=C(\C)CCC(=O)O)C(=O)OC2 [MYCOPHENOLIC ACID]
Not Active: IC50 [1] | Ki [1] | IC50 [2] | IC50 [3] | Ki [3] | IC50 [4] | IC50 [5] | IC50 [6] | Ki [6]

CCCOc1ccccc1-c1nc2nn[nH]c2c(=O)[nH]1 [ZAPRINAST]
Not Active: IC50 [1] | Ki [1] | IC50 [2] | IC50 [3] | Ki [3] | IC50 [4] | IC50 [5] | IC50 [6] | Ki [6]

C=CCC1(C(C)CCC)C(=O)NC(=O)NC1=O (stereo not given) [SECOBARBITAL]
Not Active: IC50 [1] | Ki [1] | IC50 [2] | IC50 [3] | Ki [3] | IC50 [4] | IC50 [5] | IC50 [6] | Ki [6]

CC(=O)[C@@]1(O)CC[C@H]2[C@@H]3C[C@H](C)C4=CC(=O)CC[C@]4(C)[C@H]3CC[C@@]21C
Not Active: IC50 [1] | Ki [1] | IC50 [2] | IC50 [3] | Ki [3] | IC50 [4] | IC50 [5] | IC50 [6] | Ki [6]

N#CC(C#N)=Cc1ccc(O)c(O)c1 [TYRPHOSTIN 23]
Not Active: IC50 [1] | Ki [1] | IC50 [2] | IC50 [3] | Ki [3] | IC50 [4] | IC50 [5] | IC50 [6] | Ki [6]
